Results as given in patent US12459951B2, “Compounds that interact with RAS superfamily proteins for treatment of cancers, inflammatory diseases, rasopathies, and fibrotic disease” (SHY Therapeutics, LLC, priority 2022, dated 2025).

What was measured:
[1] = tested on: MiaPaca-2 (expressing KRAS G12C mutant); assay: Proliferation Assay (Cell Viability Assay); assay type: cell-based; settings: Homo sapiens, MIA PaCa-2; read-out: Proliferation in MiaPaca-2: IC50
How it was run: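 MiaPaca-2 cells (KRAS G12C) were grown in DMEM-high glucose with 10% FBS, seeded at 2000–5000 cells/well and cultured overnight. Compounds were added at 10 μM final, or as serial dilutions for IC50, in 0.3% DMSO/10% FBS for 2–4 days at 37 °C, 5% CO2. Viability was measured with CellTiter 96 Aqueous One and % inhibition calculated.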

KRas G12D mutant = assay: Ras GTP Binding Domain Inhibition Assay (Ras Superfamily Assay); settings: for KRas G12D mutant + SOS: % inh.: with SOS; for KRas G12D mutant: % inh.: without SOS
How it was run: (§1)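 His-tagged GTPases immobilised on nickel-coated plates, pre-incubated with compound (20 μM single point, or serial dilution for IC50) 3 h at room temperature, with or without 10-30 μg/mL Sos (residues 556-1049) in the final hour. Bound Cy3- or Cy5-GTP (100 nM, 45 min) measured by fluorescence after washing.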

KRas wild type = assay: as above; settings: for KRas wild type + SOS: % inh.: with SOS; for KRas wild type: % inh.: without SOS
How it was run: as §1

Rac-1 = target: T1, Rac-1 (Homo sapiens, UniProt P63000); assay: as above; settings: read-out: Rac-1: % inh.
T1 construct: made in house
How it was run: as §1

IC50 [1] [nM] | KRas G12D mutant + SOS: % inh. (KRas G12D mutant; at 20 μM) | KRas G12D mutant: % inh. (KRas G12D mutant; at 20 μM) | KRas wild type + SOS: % inh. (KRas wild type; at 20 μM) | KRas wild type: % inh. (KRas wild type; at 20 μM) | inhibition at 20 µM (Rac-1) [%] | KRas G12D mutant + SOS: % inh. (KRas G12D mutant; 20 μM compound) | KRas G12D mutant: % inh. (KRas G12D mutant; 20 μM compound) | KRas wild type + SOS: % inh. (KRas wild type; 20 μM compound) | KRas wild type: % inh. (KRas wild type; 20 μM compound) | SMILES
< 150 | D (D = 76-100% inhibition) | D (D = 76-100% inhibition) | D (D = 76-100% inhibition) | D (D = 76-100% inhibition) | 76 to 100 | – | – | – | – | Cc1ccc(Nc2nc(-c3nccn3C)nn3cc(-c4ccn(C)n4)c(C)c23)nc1 [Compound 226, 5-Methyl-2-(1-methyl-1H-imidazol-2-yl)-6-(1-methyl-1H-pyrazol-3-yl)-N-(5-methylpyridin-2-yl)pyrrolo[2,1-f][1,2,4]triazin-4-amine]
150 to 500 | – | – | – | – | 50 to 75 | B (B = 26-49% inhibition) | B (B = 26-49% inhibition) | B (B = 26-49% inhibition) | B (B = 26-49% inhibition) | COc1ccnc(Nc2nc(-c3nccn3C)nn3cc(-c4ccn(C)n4)c(C(=O)NCC(F)(F)F)c23)c1 [Compound 174, 4-((4-Methoxypyridin-2-yl)amino)-2-(1-methyl-1H-imidazol-2-yl)-6-(1-methyl-1H-pyrazol-3-yl)-N-(2,2,2-trifluoro-ethyl)pyrrolo[2,1-f][1,2,4]triazine-5-carboxamide]
> 1000 | D (D = 76-100% inhibition) | D (D = 76-100% inhibition) | D (D = 76-100% inhibition) | D (D = 76-100% inhibition) | 76 to 100 | – | – | – | – | COc1ccnc(Nc2nc(-c3nccn3CCNC(=O)CCCC[C@H]3SC[C@H]4NC(=O)N[C@H]43)nn3cc(-c4ccn(C)n4)c(C)c23)c1 [Compound 216, N-(2-(2-(4-((4-methoxypyridin-2-yl)amino)-5-methyl-6-(1-methyl-1H-pyrazol-3-yl)pyrrolo[2,1-f][1,2,4]triazin-2-yl)-1H-imidazol-1-yl)ethyl)-5-((3aR,4R,6aS)-2-oxohexahydro-1H-thieno[3,4-d]imidazol-4-yl)pentanamide]
< 150 | D (D = 76-100% inhibition) | D (D = 76-100% inhibition) | D (D = 76-100% inhibition) | D (D = 76-100% inhibition) | 76 to 100 | – | – | – | – | COc1cc(Nc2nc(-c3nccn3C)nn3cc(-c4ccn(C)n4)c(C)c23)ncc1F [Compound 237, N-(5-Fluoro-4-methoxypyridin-2-yl)-5-methyl-2-(1-methyl-1H-imidazol-2-yl)-6-(1-methyl-1H-pyrazol-3-yl)pyrrolo[2,1-f][1,2,4]triazin-4-amine]
510 to 1000 | – | – | – | – | 50 to 75 | C (C = 50-75% inhibition) | B (B = 26-49% inhibition) | D (D = 76-100% inhibition) | C (C = 50-75% inhibition) | CCNC(=O)c1c(-c2ccn(C)n2)cn2nc(-c3nccn3C)nc(Nc3cc(OC)ccn3)c12 [Compound 173, N-Ethyl-4-((4-methoxypyridin-2-yl)amino)-2-(1-methyl-1H-imidazol-2-yl)-6-(1-methyl-1H-pyrazol-3-yl)pyrrolo[2,1-f][1,2,4]triazine-5-carboxamide]
> 1000 | – | – | – | – | 0 | 0 (0 = 0% inhibition) | A (A = 1-25% inhibition) | A (A = 1-25% inhibition) | 0 (0 = 0% inhibition) | COCCNc1nc(-c2nccn2C)nn2cc(-c3cccc(OC)c3Cl)c(C)c12 [Compound 16, 6-(2-Chloro-3-methoxyphenyl)-N-(2-methoxyethyl)-5-methyl-2-(1-methyl-1H-imidazol-2-yl)pyrrolo[2,1-f][1,2,4]triazin-4-amine]
